pIC50: −log10 of the molar value.

Among the data in patent publication US11649255B2, “Indazoles as hematopoietic progenitor kinase 1 (HPK1) inhibitors and methods using same” (1st Biotherapeutics, Inc., priority 2020, dated 2023) are IC50 values, retold here.

The target in this assay is recombinant human HPK1 (Homo sapiens (Human), UniProt Q92918). Nature of the assay: HPK1 kinase assay (ADP-Glo). It counts as biochemical. As to conditions: 25 μM ATP, MBP substrate. The method, boiled down: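 Activity was read as ADP formed, detected by ADP-Glo luminescence after the reaction of 5 ng recombinant human HPK1 with MBP and ATP (stocks 0.5 μg/μl and 25 μM) for 40 min at 30 °C. Buffer was Tris pH 7.5 with MgCl2, BSA and DTT, with compound in 0.5% DMSO. IC50 came from inhibition curves.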
Sequence of recombinant human HPK1 (Q92918 whole entry): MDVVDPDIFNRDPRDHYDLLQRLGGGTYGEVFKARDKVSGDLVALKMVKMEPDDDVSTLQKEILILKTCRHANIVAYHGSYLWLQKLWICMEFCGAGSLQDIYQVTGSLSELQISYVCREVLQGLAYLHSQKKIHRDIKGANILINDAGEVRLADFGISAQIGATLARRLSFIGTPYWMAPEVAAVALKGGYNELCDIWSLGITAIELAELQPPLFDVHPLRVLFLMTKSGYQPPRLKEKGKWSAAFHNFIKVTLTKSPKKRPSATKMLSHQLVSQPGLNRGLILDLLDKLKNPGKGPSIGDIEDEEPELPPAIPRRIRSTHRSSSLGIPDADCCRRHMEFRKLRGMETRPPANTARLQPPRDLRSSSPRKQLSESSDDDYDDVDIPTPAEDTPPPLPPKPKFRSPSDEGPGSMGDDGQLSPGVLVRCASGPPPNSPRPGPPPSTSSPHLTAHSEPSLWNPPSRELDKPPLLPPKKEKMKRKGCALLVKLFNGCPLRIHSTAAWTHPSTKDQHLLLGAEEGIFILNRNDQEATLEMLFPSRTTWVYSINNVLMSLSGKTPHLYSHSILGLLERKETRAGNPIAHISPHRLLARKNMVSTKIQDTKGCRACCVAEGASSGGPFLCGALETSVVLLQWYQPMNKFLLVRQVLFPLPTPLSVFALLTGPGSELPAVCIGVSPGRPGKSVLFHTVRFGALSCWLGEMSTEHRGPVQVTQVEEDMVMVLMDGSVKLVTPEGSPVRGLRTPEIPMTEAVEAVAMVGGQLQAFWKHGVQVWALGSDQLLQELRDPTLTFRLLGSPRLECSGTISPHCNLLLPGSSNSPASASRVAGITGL
On the technique in general: ADP-Glo first removes unused ATP, then detects ADP through luciferase.
Regarding `Cc1c(F)c(C(=O)O)c2[nH]ncc2c1-c1ccc2nc(NC(=O)[C@@H]3C[C@@H]3F)cn2c1` [Example 313, 6-fluoro-4-(2-((1S,2S)-2-fluorocyclopropane-1-carboxamido)imidazo[1,2-a]pyridin-6-yl)-5-methyl-1H-indazole-7-carboxylic acid], the pIC50 (usually −log10 of the IC50, conventionally taken in molar units) was below 6.00.

Regarding `CN(C)C1CCC(Nc2c(F)c(Cl)c(-c3ccn4nc(NC(=O)[C@@H]5C[C@@H]5F)cc4c3)c3cn[nH]c23)CC1` (stereo partly drawn) [Example 512, (1S,2S)-N-(5-(5-chloro-7-((4-(dimethylamino)cyclohexyl)amino)-6-fluoro-1H-indazol-4-yl)pyrazolo[1,5-a]pyridin-2-yl)-2-fluorocyclopropane-1-carboxamide], the pIC50 is above 7.00.

`CC(=O)c1c(F)c(C)c(-c2ccc3nc(NC(=O)[C@@H]4C[C@@H]4F)sc3c2)c2cn[nH]c12` [Example 131, (1S,2S)-N-(6-(7-acetyl-6-fluoro-5-methyl-1H-indazol-4-yl)benzo[d]thiazol-2-yl)-2-fluorocyclopropane-1-carboxamide]: the pIC50 was 6.30 to 7.00.

`CCN(CC)c1c(F)c(Cl)c(-c2ccc3nc(NC(=O)[C@@H]4C[C@@H]4F)sc3n2)c2cn[nH]c12` [Example 154, (1S,2S)-N-(5-(5-chloro-7-(diethylamino)-6-fluoro-1H-indazol-4-yl)thiazolo[5,4-b]pyridin-2-yl)-2-fluorocyclopropane-1-carboxamide]: the pIC50 was above 7.00.

On to `CCOc1c(F)c(C)c(-c2ccc3nc(NC(=O)[C@@H]4C[C@@H]4F)cn3c2)c2cn[nH]c12` [Example 288, (1S,2S)-N-(6-(7-ethoxy-6-fluoro-5-methyl-1H-indazol-4-yl)imidazo[1,2-a]pyridin-2-yl)-2-fluorocyclopropane-1-carboxamide], for which the pIC50 is above 7.00.

On to `O=C(Nc1cc2cc(-c3c(Cl)c(F)c(F)c4[nH]ncc34)ccn2n1)[C@@H]1C[C@@H]1F` [Example 536, (1S,2S)-N-(5-(5-chloro-6,7-difluoro-1H-indazol-4-yl)pyrazolo[1,5-a]pyridin-2-yl)-2-fluorocyclopropane-1-carboxamide], for which the pIC50 was above 7.00.

For the compound `Cc1c(F)c(I)c2[nH]ncc2c1-c1ccc2nc(NC(=O)[C@@H]3C[C@@H]3F)sc2c1` [Example 67, (1S,2S)-2-fluoro-N-(6-(6-fluoro-7-iodo-5-methyl-1H-indazol-4-yl)benzo[d]thiazol-2-yl)cyclopropane-1-carboxamide], the pIC50 is above 7.00.

Regarding `CCOC(=O)CSc1c(F)c(CC)c(-c2ccc3nc(NC(=O)[C@@H]4C[C@@H]4F)sc3n2)c2cn[nH]c12` [Example 165, ethyl 2-((5-ethyl-6-fluoro-4-(2-((1S,2S)-2-fluorocyclopropane-1-carboxamido)thiazolo[5,4-b]pyridin-5-yl)-1H-indazol-7-yl)thio)acetate], the negative-log IC50 (pIC50) is above 7.00.

In the case of `C=Cc1cc(C)c(-c2ccc3nc(NC(=O)[C@@H]4C[C@@H]4F)cn3c2)c2cn[nH]c12` [Example 264, (1S,2S)-2-fluoro-N-(6-(5-methyl-7-vinyl-1H-indazol-4-yl)imidazo[1,2-a]pyridin-2-yl)cyclopropane-1-carboxamide], the pIC50 was above 7.00.

On to `CN(C)C1CCC(N(C)c2c(F)c(Cl)c(-c3ccn4nc(NC(=O)[C@@H]5C[C@@H]5F)cc4c3)c3cn[nH]c23)CC1` (stereo partly drawn) [Example 502, (1S,2S)-N-(5-(5-chloro-7-((4-(dimethylamino)cyclohexyl)(methyl)amino)-6-fluoro-1H-indazol-4-yl)pyrazolo[1,5-a]pyridin-2-yl)-2-fluorocyclopropane-1-carboxamide], for which the pIC50 was above 7.00.

On to `CSc1n[nH]c2cc(F)c(C)c(-c3ccc4nc(NC(=O)[C@@H]5C[C@@H]5F)sc4n3)c12` [Example 148, (1S,2S)-2-fluoro-N-(5-(6-fluoro-5-methyl-3-(methylthio)-1H-indazol-4-yl)thiazolo[5,4-b]pyridin-2-yl)cyclopropane-1-carboxamide], for which the pIC50 was below 6.00.

`CCOc1c(F)c(Cl)c(-c2ccc3nc(NC(=O)[C@@H]4C[C@@H]4F)cn3c2)c2cn[nH]c12` [Example 275, (1S,2S)-N-(6-(5-chloro-7-ethoxy-6-fluoro-1H-indazol-4-yl)imidazo[1,2-a]pyridin-2-yl)-2-fluorocyclopropane-1-carboxamide]: the pIC50 is above 7.00.

In the case of `Cc1c(F)c(Cl)c2[nH]nc(Cl)c2c1-c1ccc2nc(NC(=O)[C@@H]3C[C@@H]3F)sc2c1` [Example 53, (1S,2S)-N-(6-(3,7-dichloro-6-fluoro-5-methyl-1H-indazol-4-yl)benzo[d]thiazol-2-yl)-2-fluorocyclopropane-1-carboxamide], the negative-log IC50 (pIC50) is 6.30 to 7.00.

As for `Cc1c(F)c(S(C)(=O)=O)c2[nH]ncc2c1-c1ccc2nc(NC(=O)[C@@H]3C[C@@H]3F)sc2c1` [Example 112, (1S,2S)-2-fluoro-N-(6-(6-fluoro-5-methyl-7-(methylsulfonyl)-1H-indazol-4-yl)benzo[d]thiazol-2-yl)cyclopropane-1-carboxamide], the negative logarithm of the IC50 (pIC50) was 6.30 to 7.00.

For `CC(C)N(C)c1c(F)c(Cl)c(-c2ccn3nc(NC(=O)[C@@H]4C[C@@H]4F)cc3c2)c2cn[nH]c12` [Example 622, (1S,2S)-N-(5-(5-chloro-6-fluoro-7-(isopropyl(methyl)amino)-1H-indazol-4-yl)pyrazolo[1,5-a]pyridin-2-yl)-2-fluorocyclopropane-1-carboxamide], the negative-log IC50 (pIC50) is above 7.00.

As to `N#Cc1c(F)cc2[nH]ncc2c1-c1ccc2nc(NC(=O)[C@@H]3C[C@@H]3F)sc2n1` [Example 157, (1S,2S)-N-(5-(5-cyano-6-fluoro-1H-indazol-4-yl)thiazolo[5,4-b]pyridin-2-yl)-2-fluorocyclopropane-1-carboxamide], the pIC50 is 6.30 to 7.00.

As to `CCOc1c(F)cc2[nH]ncc2c1-c1ccn2nc(NC(=O)[C@@H]3C[C@@H]3F)cc2c1` [Example 578, (1S,2S)-N-(5-(5-ethoxy-6-fluoro-1H-indazol-4-yl)pyrazolo[1,5-a]pyridin-2-yl)-2-fluorocyclopropane-1-carboxamide], the pIC50 was above 7.00.

Turning to `Cc1c(F)cc2[nH]nc(Cl)c2c1-c1ccn2nc(NC(=O)[C@@H]3C[C@@H]3F)cc2c1` [Example 469, (1S,2S)-N-(5-(3-chloro-6-fluoro-5-methyl-1H-indazol-4-yl)pyrazolo[1,5-a]pyridin-2-yl)-2-fluorocyclopropane-1-carboxamide], the pIC50 was above 7.00.

On to `CCc1c(F)c(SC(C)(C)C#N)c2[nH]ncc2c1-c1ccn2nc(NC(=O)[C@@H]3C[C@@H]3F)cc2c1` [Example 603, (1S,2S)-N-(5-(7-((2-cyanopropan-2-yl)thio)-5-ethyl-6-fluoro-1H-indazol-4-yl)pyrazolo[1,5-a]pyridin-2-yl)-2-fluorocyclopropane-1-carboxamide], for which the pIC50 is above 7.00.

As for `O=C(Nc1cc2cc(-c3c(Cl)ccc4[nH]ncc34)ccn2n1)[C@@H]1C[C@@H]1F` [Example 448, (1S,2S)-N-(5-(5-chloro-1H-indazol-4-yl)pyrazolo[1,5-a]pyridin-2-yl)-2-fluorocyclopropane-1-carboxamide], the pIC50 is above 7.00.

In the case of `CNC(=O)c1c(F)c(C)c(-c2ccn3nc(NC(=O)[C@@H]4C[C@@H]4F)cc3c2)c2cn[nH]c12` [Example 584, 6-fluoro-4-(2-((1S,2S)-2-fluorocyclopropane-1-carboxamido)pyrazolo[1,5-a]pyridin-5-yl)-N,5-dimethyl-1H-indazole-7-carboxamide], the pIC50 is 6.30 to 7.00.
